Results published in ChEMBL document CHEMBL1147236, “Semiplenamides A-G, fatty acid amides from a Papua New Guinea collection of the marine cyanobacterium Lyngbya semiplena” (J Nat Prod, 2003).

Test system: RBL-2H3
Settings: Rattus norvegicus
Description: Activity at AMT in rat RBL-2H3 cells

CCCCC/C=C\C/C=C\C/C=C\C/C=C\CCCC(=O)NCCO
Km: 9.3 µM
